Values joined by “and” are separate entries in the source; they are usually repeats but may differ in a detail not shown here. Equal values may be shown once. Read-outs that look alike come from different tables or passages of the source.
How the values were obtained:
Aβ plaques = experiment: Aβ PET (18F-AV45) in 3xTg mice after chronic treatment; format: in vivo, mouse; details: 7.5 mg/kg P.O. daily, one month
Excerpt: (§1) Blood and brain tissues were collected at 0, 0.08, 0.25, 0.5, 1, 2, 4, and 8 h post-administration. For acute pharmacodynamic (PD) assessments, male and female 3xTg mice received oral doses of NP-11a-isopropyl at 7.5 mg/kg or 15 mg/kg, and blood and brain samples were collected 2 h after treatment.
Mice were maintained under isoflurane inhalation anesthesia during all procedures to ensure stable physiological conditions for radiochemical administration, imaging, and data processing. PET imaging was conducted using a high-resolution small-animal scanner (microPET; spatial resolution: 1.0 mm). Following intravenous administration of 10–15 MBq of ^18F-florbetapir (AV45) in 100 μL saline via the tail vein, 20-min volumetric brain emission scans were acquired. Image reconstruction was performed using ordered-subset expectation maximization (OSEM) to optimize spatial resolution and signal-to-noise ratios. For quantitative analysis, standardized uptake value ratios (SUVRs) were calculated by normalizing 18F-AV45 uptake in target regions to the cerebellar reference tissue. A predefined volumetric region of interest (VOI) template was applied to ensure consistent anatomical localization across subjects. SUVR data were statistically analyzed using Amide 1.0.4–1 (San Diego, CA, USA), with results reported for cortical and subcortical regions implicated in amyloid pathology.

AEP [1] = molecular target: T1, AEP (Mus musculus, UniProt O89017); experiment: Acute PD in 3xTg mice: brain AEP enzymatic activity and immunoblotting; format: in vivo; details: 2 h
T1 construct: from tissue; host or cells: brain / hippocampus of 3xTg mice
T1 sequence (O89017 18-435): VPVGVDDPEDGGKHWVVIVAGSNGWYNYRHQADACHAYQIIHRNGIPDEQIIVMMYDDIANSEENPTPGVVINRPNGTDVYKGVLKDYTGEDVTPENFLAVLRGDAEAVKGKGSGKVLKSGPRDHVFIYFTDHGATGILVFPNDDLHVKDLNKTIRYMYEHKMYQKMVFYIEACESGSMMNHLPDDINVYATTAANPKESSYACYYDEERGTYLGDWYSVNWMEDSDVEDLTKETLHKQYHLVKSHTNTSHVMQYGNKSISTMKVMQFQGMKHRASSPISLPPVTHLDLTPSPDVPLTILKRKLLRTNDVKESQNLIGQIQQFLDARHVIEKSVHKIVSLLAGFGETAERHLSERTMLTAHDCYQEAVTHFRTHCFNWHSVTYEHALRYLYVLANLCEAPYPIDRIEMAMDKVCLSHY

[2] = Plasma and brain concentrations after acute oral treatment of 3xTg mice; format: in vivo; details: both sexes, mouse
Excerpt: Blood and brain tissues were collected at 0, 0.08, 0.25, 0.5, 1, 2, 4, and 8 h post-administration.

3xTg mice = experiment: Y-maze test in 3xTg mice; format: in vivo, mouse; details: 7.5 mg/kg P.O. daily, one month
Excerpt: as §1
The Y-maze test was employed to evaluate spatial working memory and spontaneous alternation behavior, a measure of natural exploratory pattern integrity. The apparatus comprised three symmetrical opaque arms (A, B, C; 30 cm length × 8 cm width × 15 cm height) intersecting at 120° angles to form a Y-shaped configuration. Mice were habituated to the maze during a 5-min acclimatization period to minimize novelty-induced anxiety. Following habituation, spontaneous exploration was recorded for 8 min using an overhead camera, with all trials conducted under consistent low-light conditions to reduce environmental stress. EthoVision XT 12 software (Noldus, Wageningen, The Netherlands) quantified total arm entries, entry sequences, and alternation patterns (consecutive entries into three distinct arms without repetition). The maze was thoroughly cleaned with 70 % ethanol between trials to eliminate olfactory cues.

[3] = Stability in human liver microsomes; format: in vitro ADME
[4] = Stability in mouse plasma; format: in vitro ADME; details: read-out: Stability-Plasma T1/2
[5] = PAMPA-BBB permeability assay; format: in vitro ADME; details: read-out: Permeability-PAMPA-BBB Pe
[6] = Stability in mouse hepatocytes; format: in vitro ADME
AEP [7] = molecular target: T1, AEP; experiment: Chronic one-month oral treatment of 3xTg mice: AEP activation and substrate cleavage; format: in vivo; details: 7.5 mg/kg P.O. daily
[8] = Stability in human plasma; format: in vitro ADME; details: read-out: Stability-Plasma T1/2
[9] = In vivo pharmacokinetics in CD-1 (ICR) mice, plasma and brain, LC-MS/MS; details: mouse
Excerpt: as §1

[10] = Plasma protein binding, mouse; format: in vitro ADME
Caco-2 permeability = format: in vitro ADME; details: human
[11] = male, CD-1 (ICR), plasma, iv, I.V. 2 mg/kg
[12] = male, CD-1 (ICR), plasma, po, P.O. 5 mg/kg

## CC(C)Nc1nnc(Nc2cc(CO)c(N3CCOCC3)c3nonc23)s1 [11a-isopropyl]
Aβ plaques
  Aβ PET (18F-AV45) SUVR: significantly decreasing the PET signals
AEP [1]; acute P.O. 7.5 and 15 mg/kg, dose-dependent
  AEP enzymatic activity in the brain: substantially inhibited
AEP [1]; acute P.O.
  Active AEP band intensity, hippocampus immunoblotting: further suppressed
[2]; brain, 7.5 mg/kg, 11a-isopropyl level in the brain, P.O. 7.5 mg/kg
  concentration at 2 h: 14.4 ng/mL
[2]; brain, 7.5 mg/kg, P.O. 7.5 mg/kg, read-out: Concentration in brain, Brain Mean
  concentration at 2 h: 14.4 ng/g
[2]; brain, 7.5 mg/kg, P.O. 7.5 mg/kg, read-out: Concentration in brain, Brain Sample (single animal)
  concentration at 2 h: 14.4 ng/g
[2]; brain, 15 mg/kg, P.O. 15 mg/kg, read-out: Concentration in brain, Brain Sample (single animal)
  concentration at 2 h: 39.3 ng/g
[2]; plasma, 7.5 mg/kg, P.O. 7.5 mg/kg, read-out: Concentration in plasma, Serum Mean
  concentration at 2 h: 74.9 ng/mL
3xTg mice
  Cognitive function in the Y maze: significantly improved
[3]
  microsomal CLint: 3.6 µL/min/mg
[3]; read-out: Stability-Microsomes T1/2
  half-life: > 240 min
[4]
  half-life: > 480 min
[5]
  Papp: 8.4 ×10⁻⁶ cm/s
[6]
  hepatocyte CLint: 9 µL/min/1e6 cells
[6]; read-out: Stability-Hepatocytes T1/2
  half-life: 153 min
AEP [7]
  AEP activation, APP N585 and Tau N368 fragmentation, hippocampus immunoblotting: gradually reduced
[8]
  half-life: > 480 min
[9]; male, CD-1 (ICR), brain, iv, I.V. 2 mg/kg, read-out: Brain MRT (0-t)
  MRT last: 143 min
[9]; male, CD-1 (ICR), brain, iv, I.V. 2 mg/kg, read-out: Brain Tmax
  Tmax: 4.8 min
[9]; male, CD-1 (ICR), brain, po, P.O. 5 mg/kg, read-out: Brain MRT (0-t)
  MRT last: 130 min
[9]; male, CD-1 (ICR), brain, po, P.O. 5 mg/kg, read-out: Brain Tmax
  Tmax: 11.6 min
[9]; male, CD-1 (ICR), brain, iv, 2 mg/kg, I.V. 2 mg/kg, read-out: Brain t1/2 (converted)
  half-life: ~120 min
[9]; male, CD-1 (ICR), brain, po, 5 mg/kg, P.O. 5 mg/kg, read-out: Brain t1/2 (converted)
  half-life: 144 min
[9]; male, CD-1 (ICR), plasma, iv, 2 mg/kg, I.V. 2 mg/kg, read-out: Plasma CLz (converted)
  clearance: 13.8 mL/min/kg
[9]; male, CD-1 (ICR), plasma, iv, 2 mg/kg, I.V. 2 mg/kg, read-out: Plasma t1/2 (converted)
  half-life: 53.4 min
[9]; male, CD-1 (ICR), plasma, oral, 5 mg/kg, P.O. 5 mg/kg vs I.V. 2 mg/kg, read-out: F* (%) oral bioavailability
  bioavailability: ~67.2%
[9]; male, CD-1 (ICR), plasma, po, 5 mg/kg, P.O. 5 mg/kg, read-out: Plasma t1/2 (converted)
  half-life: ~43.8 min
[9]; [11]
  AUC(0-t): 2410 ng·h/mL
  Cmax: 5160 ng/mL
[9]; male, CD-1 (ICR), plasma, iv, I.V. 2 mg/kg, read-out: Plasma MRT (0-t)
  MRT last: 33.4 min
[9]; male, CD-1 (ICR), plasma, iv, I.V. 2 mg/kg, read-out: Plasma Tmax
  Tmax: 4.8 min
[9]; [12]
  AUC(0-t): 4050 ng·h/mL
  Cmax: 4770 ng/mL
[9]; male, CD-1 (ICR), plasma, po, P.O. 5 mg/kg, read-out: Plasma MRT (0-t)
  MRT last: 50.9 min
[9]; male, CD-1 (ICR), plasma, po, P.O. 5 mg/kg, read-out: Plasma Tmax
  Tmax: 8.22 min
[9]; I.V. 2 mg/kg, 2 mg/kg
  Brain AUC (0-t): approximately 921.71 ng/mL·h
  Brain Cmax: 306.77 ng/mL
[9]; P.O. 5 mg/kg, 5 mg/kg
  Brain AUC (0-t): ~385.36 ng·h/mL and 385.358 ng·h/mL
  Brain Cmax: 321.25 ng/mL and 321.248 ng/mL
[10]
  Plasma Protein F u, plasma(%): 20.4%
[10]; plasma, as a fraction, from Table S1, read-out: Unbound plasma fraction (fu, plasma)
  fraction unbound: 0.204
Caco-2 permeability; a-b, first value of the cell
  Papp A→B: 6.34 ×10⁻⁶ cm/s
Caco-2 permeability; value after the slash, head names only a-b, read-out: Permeability-Caco-2 Papp, second value of the cell (taken as b-a)
  Papp B→A: 23.6 ×10⁻⁶ cm/s

Source: paper PMC12664493, “Asparagine endopeptidase (AEP) inhibitor formulation via zein-based nanoparticle improves the therapeutic efficacy toward Alzheimer's disease” (Neurotherapeutics, 2025)
